Assay results: ChEMBL document CHEMBL1127235, “1,1-diphenyl-3-dialkylamino-1-silacyclopentane derivatives: A new class of potent and selective 5-HT2A antagonists” (Bioorg Med Chem Lett, 1994)

Key:
Mus musculus [1] = assay: In vivo inhibitory activity against mescaline-induced head twitches of mice after pretreatment for 1 hour upon subcutaneous administration; type: functional; conditions: sc
Mus musculus [2] = assay: In vivo inhibitory activity against mescaline-induced head twitches of mice after pretreatment for 15 hours upon peroral administration; type: functional; conditions: po
[3] = molecular target: 5-hydroxytryptamine receptor 2A (Rattus norvegicus, UniProt P14842); assay: In vitro binding affinity towards serotonin 5-HT2A receptor in rat cortical membranes using [3H]ketanserin as radioligand; type: cell membranes
Chain of 5-hydroxytryptamine receptor 2A (P14842 whole entry): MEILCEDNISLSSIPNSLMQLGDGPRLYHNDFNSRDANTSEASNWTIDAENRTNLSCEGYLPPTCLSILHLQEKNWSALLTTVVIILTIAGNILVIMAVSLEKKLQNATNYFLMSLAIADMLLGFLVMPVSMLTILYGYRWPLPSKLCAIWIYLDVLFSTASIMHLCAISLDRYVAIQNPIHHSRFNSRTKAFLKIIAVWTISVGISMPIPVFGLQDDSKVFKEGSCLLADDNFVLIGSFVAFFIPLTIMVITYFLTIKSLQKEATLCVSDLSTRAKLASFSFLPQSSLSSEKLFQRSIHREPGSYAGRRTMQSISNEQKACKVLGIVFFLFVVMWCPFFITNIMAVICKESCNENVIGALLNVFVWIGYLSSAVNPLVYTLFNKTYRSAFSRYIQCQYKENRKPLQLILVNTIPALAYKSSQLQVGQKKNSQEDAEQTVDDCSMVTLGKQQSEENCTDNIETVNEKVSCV

Rattus norvegicus [4] = assay: In vivo inhibitory activity against mescaline-induced head twitches of rat after pretreatment for 1 hour upon peroral administration; type: functional
[5] = molecular target: T1, Muscarinic acetylcholine receptor M4 (Homo sapiens, UniProt P08173); assay: Binding affinity towards muscarinic receptor
T1 sequence (P08173 whole entry): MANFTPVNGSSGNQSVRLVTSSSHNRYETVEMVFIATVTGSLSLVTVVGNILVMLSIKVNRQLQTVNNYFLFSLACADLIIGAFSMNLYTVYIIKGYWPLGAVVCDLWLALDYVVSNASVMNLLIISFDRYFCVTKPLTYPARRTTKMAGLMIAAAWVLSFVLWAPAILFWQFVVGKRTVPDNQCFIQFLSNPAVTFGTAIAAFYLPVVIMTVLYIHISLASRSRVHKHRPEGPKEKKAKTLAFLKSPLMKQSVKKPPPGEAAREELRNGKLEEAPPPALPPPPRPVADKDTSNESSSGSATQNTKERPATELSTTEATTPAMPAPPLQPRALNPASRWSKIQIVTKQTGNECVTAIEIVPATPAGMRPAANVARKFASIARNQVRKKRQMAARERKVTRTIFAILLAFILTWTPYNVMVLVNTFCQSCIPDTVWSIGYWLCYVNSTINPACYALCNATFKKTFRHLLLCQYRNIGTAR

Mus musculus [6] = assay: In vivo inhibitory activity against DOI-induced head twitches of mice after pretreatment for 1 hour upon subcutaneous administration; type: functional
D(2) dopamine receptor = D(2) dopamine receptor (Homo sapiens, UniProt P14416); assay: Binding affinity towards dopamine D2 receptor
Chain of D(2) dopamine receptor (P14416 whole entry): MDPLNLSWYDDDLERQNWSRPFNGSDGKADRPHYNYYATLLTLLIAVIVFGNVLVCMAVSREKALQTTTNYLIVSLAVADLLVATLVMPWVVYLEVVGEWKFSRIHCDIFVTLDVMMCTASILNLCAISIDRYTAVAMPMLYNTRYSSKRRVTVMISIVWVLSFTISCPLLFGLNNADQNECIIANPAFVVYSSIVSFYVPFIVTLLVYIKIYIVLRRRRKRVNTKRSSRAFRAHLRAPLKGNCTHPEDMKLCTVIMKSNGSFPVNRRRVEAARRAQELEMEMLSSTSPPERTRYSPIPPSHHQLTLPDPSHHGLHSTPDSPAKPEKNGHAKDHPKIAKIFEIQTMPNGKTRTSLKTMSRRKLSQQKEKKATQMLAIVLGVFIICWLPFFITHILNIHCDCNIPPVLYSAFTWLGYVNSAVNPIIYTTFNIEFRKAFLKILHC

Rattus norvegicus [7] = assay: In vivo inhibitory activity against mescaline-induced head twitches of rat after pretreatment for 16 hours upon peroral administration; type: functional
Histamine H1 receptor = Histamine H1 receptor (Homo sapiens, UniProt P35367); assay: Binding affinity towards histamine H1 receptor
Chain of Histamine H1 receptor (P35367 whole entry): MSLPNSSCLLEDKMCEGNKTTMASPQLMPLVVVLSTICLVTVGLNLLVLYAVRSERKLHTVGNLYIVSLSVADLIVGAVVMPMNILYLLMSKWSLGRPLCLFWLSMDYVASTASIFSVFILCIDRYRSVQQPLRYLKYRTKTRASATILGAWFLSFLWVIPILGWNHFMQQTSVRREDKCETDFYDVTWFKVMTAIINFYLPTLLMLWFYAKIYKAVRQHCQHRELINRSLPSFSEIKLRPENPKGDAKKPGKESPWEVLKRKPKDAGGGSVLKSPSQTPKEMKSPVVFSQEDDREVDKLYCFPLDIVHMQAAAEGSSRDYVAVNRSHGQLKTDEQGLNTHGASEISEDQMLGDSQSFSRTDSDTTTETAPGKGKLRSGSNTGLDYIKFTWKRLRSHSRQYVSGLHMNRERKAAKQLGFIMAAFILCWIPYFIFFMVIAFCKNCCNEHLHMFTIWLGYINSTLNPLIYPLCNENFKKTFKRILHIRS

Mus musculus [8] = assay: In vivo inhibitory activity against DOI-induced head twitches of mice after pretreatment for 15 hours upon peroral administration; type: functional
Rattus norvegicus [9] = assay: In vivo inhibitory activity against mescaline-induced head twitches of rat after pretreatment for 1 hour upon subcutaneous administration; type: functional
Rattus norvegicus [10] = assay: In vivo inhibitory activity against mescaline-induced head twitches of rat after pretreatment for 6 hours upon peroral administration; type: functional
[11] = molecular target: T2, Adrenergic receptor alpha-1 (Homo sapiens, UniProt P35348+P25100+P35368); assay: Binding affinity towards Alpha-1 adrenergic receptor; type: protein assay
T2 sequence (P35348 whole entry): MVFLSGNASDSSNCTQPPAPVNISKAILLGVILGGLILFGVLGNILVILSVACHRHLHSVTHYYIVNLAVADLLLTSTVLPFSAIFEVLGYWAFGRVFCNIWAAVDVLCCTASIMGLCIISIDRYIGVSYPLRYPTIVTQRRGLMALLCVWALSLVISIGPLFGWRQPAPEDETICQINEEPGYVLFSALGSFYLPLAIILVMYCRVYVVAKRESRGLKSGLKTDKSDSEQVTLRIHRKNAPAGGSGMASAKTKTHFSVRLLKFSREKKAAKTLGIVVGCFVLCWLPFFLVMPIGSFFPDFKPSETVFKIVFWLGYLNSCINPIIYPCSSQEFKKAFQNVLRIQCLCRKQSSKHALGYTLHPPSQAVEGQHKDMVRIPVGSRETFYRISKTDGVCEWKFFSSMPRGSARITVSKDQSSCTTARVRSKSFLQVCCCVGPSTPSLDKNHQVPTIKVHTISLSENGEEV
T2 sequence (P25100 whole entry): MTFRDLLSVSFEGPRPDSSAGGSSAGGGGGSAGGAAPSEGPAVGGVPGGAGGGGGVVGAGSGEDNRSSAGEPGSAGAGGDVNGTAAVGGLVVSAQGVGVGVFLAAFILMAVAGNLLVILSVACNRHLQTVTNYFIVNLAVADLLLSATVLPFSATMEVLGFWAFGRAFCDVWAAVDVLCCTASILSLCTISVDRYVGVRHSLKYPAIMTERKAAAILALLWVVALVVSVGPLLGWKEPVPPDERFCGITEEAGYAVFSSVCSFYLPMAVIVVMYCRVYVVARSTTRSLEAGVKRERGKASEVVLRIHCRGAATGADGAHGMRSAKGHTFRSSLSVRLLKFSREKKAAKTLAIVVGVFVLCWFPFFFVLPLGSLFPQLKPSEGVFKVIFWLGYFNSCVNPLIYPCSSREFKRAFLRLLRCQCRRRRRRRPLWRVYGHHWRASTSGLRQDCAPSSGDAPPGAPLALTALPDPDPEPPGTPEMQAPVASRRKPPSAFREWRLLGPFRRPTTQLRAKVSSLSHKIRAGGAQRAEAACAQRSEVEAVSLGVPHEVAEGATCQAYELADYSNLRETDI
T2 sequence (P35368 whole entry): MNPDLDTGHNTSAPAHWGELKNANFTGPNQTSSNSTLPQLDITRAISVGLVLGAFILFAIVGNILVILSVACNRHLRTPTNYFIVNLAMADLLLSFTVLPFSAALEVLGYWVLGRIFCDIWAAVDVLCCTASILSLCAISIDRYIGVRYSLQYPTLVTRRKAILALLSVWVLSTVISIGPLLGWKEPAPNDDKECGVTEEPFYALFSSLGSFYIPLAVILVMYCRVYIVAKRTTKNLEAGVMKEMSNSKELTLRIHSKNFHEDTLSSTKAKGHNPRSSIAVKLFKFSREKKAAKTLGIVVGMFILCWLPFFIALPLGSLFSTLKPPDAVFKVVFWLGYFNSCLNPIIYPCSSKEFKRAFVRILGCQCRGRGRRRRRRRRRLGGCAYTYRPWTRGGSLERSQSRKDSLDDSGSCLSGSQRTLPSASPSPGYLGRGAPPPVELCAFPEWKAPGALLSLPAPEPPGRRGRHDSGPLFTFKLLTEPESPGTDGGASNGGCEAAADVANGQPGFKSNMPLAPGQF

[12] = Rattus norvegicus, po, read-out: ED50

`c1ccc(N2CCN(C3CC[Si](c4ccccc4)(c4ccccc4)C3)CC2)cc1` (stereo unspecified) gave an ED50 (Mus musculus [1]) of 68 mg/kg, an ED50 (Mus musculus [2]) of 45 mg/kg and an IC50 [3] of 1 nM. It also gave an ED50 (Rattus norvegicus [4]; [12]) of 84 mg/kg.
Work on `Oc1ccc(N2CCN(C3CC[Si](c4ccccc4)(c4ccccc4)C3)CC2)cc1` (stereo unspecified) yielded an IC50 [3] of 46 nM.
For `c1ccc([Si]2(c3ccccc3)CCC(N3CCN(c4ncccn4)CC3)C2)cc1` (stereo unspecified), the IC50 [3] was 80 nM.
`Cc1ccc(N2CCN(C3CC[Si](c4ccccc4)(c4ccccc4)C3)CC2)cc1` (stereo unspecified) showed an IC50 [3] of 10 nM.
For `Fc1ccc(C2=CCN(C3CC[Si](c4ccccc4)(c4ccccc4)C3)CC2)cc1` (stereo unspecified), the IC50 [3] was 14 nM.
`c1ccc([Si]2(c3ccccc3)CCC(N3CCN(c4ccccn4)CC3)C2)cc1` (stereo unspecified) showed an IC50 [3] of 29 nM.
With `Fc1ccc(N2CCN(C3CC[Si](c4ccc(F)cc4)(c4ccc(F)cc4)C3)CC2)cc1` (stereo unspecified) the IC50 [3] was 18 nM.
Work on `Fc1cccc(N2CCN(C3CC[Si](c4ccccc4)(c4ccccc4)C3)CC2)c1` (stereo unspecified) yielded an IC50 [3] of 3.4 nM.
With `c1ccc(C2CCN(C3CC[Si](c4ccccc4)(c4ccccc4)C3)CC2)cc1` (stereo unspecified) the IC50 [3] was 53 nM.
`Clc1ccc(N2CCN(C3CC[Si](c4ccccc4)(c4ccccc4)C3)CC2)cc1` (stereo unspecified) showed an IC50 [3] of 25 nM.
`Cc1cccc(N2CCN(C3CC[Si](c4ccccc4)(c4ccccc4)C3)CC2)c1` (stereo unspecified) showed an IC50 [3] of 33 nM.
`Fc1ccccc1N1CCN(C2CC[Si](c3ccccc3)(c3ccccc3)C2)CC1` (stereo unspecified) showed an IC50 [3] of 100 nM.
`Fc1ccc(N2CCN(C3CC[Si](c4ccccc4)(c4ccccc4)C3)CC2)cc1` (stereo unspecified) was tested, and the ED50 (Mus musculus [1]) was 10 mg/kg, the ED50 (Mus musculus [2]) was 15 mg/kg and the IC50 [3] was 0.9 nM.
`Fc1ccc([Si]2(c3ccc(F)cc3)CCC(N3CCN(c4ccccc4)CC3)C2)cc1` (racemic) was tested, and the ED50 (Mus musculus [1]) was 1.38 mg/kg, the ED50 (Mus musculus [2]) was 0.44 mg/kg and the IC50 [5] was > 1000 nM. It also gave an ED50 (Mus musculus [6]) of 0.73 mg/kg, an IC50 (D(2) dopamine receptor) of 140 nM and an ED50 (Rattus norvegicus [7]) of 1.25 mg/kg. For the same compound, the IC50 [3] was 2 nM, the IC50 (Histamine H1 receptor) was > 1000 nM and the ED50 (Mus musculus [8]) was 0.59 mg/kg. It also gave an ED50 (Rattus norvegicus [9]) of 10 mg/kg, an ED50 (Rattus norvegicus [10]) of 0.48 mg/kg and an IC50 [11] of 86 nM. The ED50 (Rattus norvegicus [4]) was 1.93 mg/kg.
`Fc1ccc([Si]2(c3ccccc3)CCC(N3CCN(c4ccccc4)CC3)C2)cc1` (single isomer, unassigned) gave an IC50 [3] of 20 nM.
For `Fc1ccc([Si]2(c3ccc(F)cc3)CCC(N3CCN(c4ccccc4)CC3)C2)cc1` (single isomer, unassigned; (+)), the IC50 [5] was > 1000 nM, the ED50 (Mus musculus [6]) was 0.59 mg/kg and the IC50 (D(2) dopamine receptor) was 100 nM. For the same compound, the ED50 (Rattus norvegicus [7]; [12]) was < 2.5 mg/kg, the IC50 [3] was 3 nM and the IC50 (Histamine H1 receptor) was > 1000 nM. The ED50 (Mus musculus [8]) was 0.62 mg/kg, the ED50 (Rattus norvegicus [9]) was 1.56 mg/kg and the ED50 (Rattus norvegicus [10]; [12]) was < 0.63 mg/kg. For the same compound, the IC50 [11] was 100 nM and the ED50 (Rattus norvegicus [4]) was 2.03 mg/kg.
In the case of `Fc1ccc([Si]2(c3ccc(F)cc3)CCC(N3CCN(c4ccccc4)CC3)C2)cc1` (single isomer, unassigned; (-)), the ED50 (Mus musculus [6]) is reported as >5 mg/kg, the IC50 [3] is reported as 25 nM and the ED50 (Mus musculus [8]) is reported as 10.5 mg/kg. For the same compound, the ED50 (Rattus norvegicus [9]) was 10.25 mg/kg and the ED50 (Rattus norvegicus [4]) was 10.25 mg/kg.
With `Fc1ccc([Si]2(c3ccccc3)CCC(N3CCN(c4ccccc4)CC3)C2)cc1` (stereo in doubt) the IC50 [3] was 27 nM.
Compound `Fc1ccc([Si]2(c3ccc(F)cc3)CCC(N3CCN(c4ccccc4)CC3)C2)cc1` (stereo in doubt) has an IC50 [3] of 16 nM.
With `Cc1nc2sccn2c(=O)c1CCN1CCC(=C(c2ccc(F)cc2)c2ccc(F)cc2)CC1` [RITANSERIN] the ED50 (Mus musculus [1]) was 0.29 mg/kg, the ED50 (Mus musculus [2]) was 0.09 mg/kg and the ED50 (Mus musculus [6]; Mus musculus, sc, read-out: ED50) was 0.05 mg/kg. It also gave an ED50 (Rattus norvegicus [7]; [12]) of 18.1 mg/kg, an ED50 (Mus musculus [8]; Mus musculus, po, read-out: ED50) of 0.08 mg/kg and an ED50 (Rattus norvegicus [9]; Rattus norvegicus, sc, read-out: ED50) of 0.38 mg/kg.
